Consider 1 compound from patent US11673139B2, “Microfluidic platforms for drug discovery” (UVic Industry Partnerships Inc., priority 2020, dated 2023).

This data set is described as follows: Passive diffusion of fluorophore through tripartite DIB network (intestinal space, enterocyte, blood compartments). The class given is in vitro ADME. The arrangement: half-life: dose or concentration left out as unconfirmed. The text has this: The first droplet 12 can mimic the intestinal space, the second droplet 14 can mimic an enterocyte, and the third droplet 16 can mimic the blood. The interior of each droplet 12, 14, 16 comprises a buffer (see Table 1) that mimics the pH and salt composition of the respective compartment. The barrier layer or artificial membrane between each pair of adjacent droplets can be an equal mixture of the phospholipids L-α-phosphatidylcholine (PC) and L-α-phosphatidylethanolamine (PE). The size of the droplets 116 can mimic the volume of human cells.
To prepare the lipid solutions, chloroform was removed from the lipid stock solutions by placing 10 mg (e.g., 400 μL of a 25 mgmL^−1 solution) of lipids in a 10 mL glass roundbottom flask, and rotating the flask under a stream of nitrogen gas to create a thin film. The flask was then placed in a desiccator under vacuum for 1 hour to remove residual solvent. […]
During use, the microfluidic devices were mounted in a heating platform set to 37° C. on a microscope stage (e.g., a Nikon Eclipse Ti2-E or a Nikon Eclipse Ti2-U inverted microscope) for visualization. […] Fluorescence and brightfield images for fluorescence experiments were captured using a measurement camera (e.g., a Hamamatsu ORCA Flash4.0 V3, with a Solis 1C cold white LED (e.g., from Thorlabs) and a GFP SemrockBrightline large field of view filter cube (e.g., from Nikon).
Reagents were introduced into the microfluidic devices using a pressure pump (e.g., an Elveflow OB1 MK3 pressure pump), four 1.5 mL Eppendorf tubes as reservoirs and four matched lengths of PTFE tubing. […] Following equilibration, the main chamber was monitored in Motion Blitz Director for quantification of device performance, and NIS Elements Advanced Research (Nikon, version 5.11.01) for fluorescence data collection. Following formation of a tripartite DIB network for a fluorescence experiment, flow was stopped from all reservoirs from within the Elveflow control software. […]

Take `O=C1OC2(c3ccc(O)cc3Oc3cc(O)ccc32)c2ccccc21` [fluorescein]: under “100 µM”, the “compartment preference in control triplets” value is “clear preference for pH 7.4 compartments”. The Papp result (DIB network treated as two compartment model, intestinal space to enterocyte droplet, Equation (3), data of FIG. 6) is “(5.5±0.8)×10^−5 cms^−1”. Also, the half-life (DIB network, intestinal space droplet (pH 6.5) into enterocyte droplet (pH 7.4), 37° C., exponential curve fit, FIG. 5, read-out: half-life (t1/2) of the fluorophore in the intestinal space (converted)) is 1.8 min.
